# Test results reported in ChEMBL document CHEMBL1140613, “Antituberculosis drugs: ten years of research” (2007).
# Tested on: Mycobacterium tuberculosis
# Assay: Antituberculosis activity against Mycobacterium tuberculosis
# Assay type: functional
compound,measurement,value
COc1nc2ccc(Br)cc2cc1[C@@H](c1ccccc1)[C@@](O)(CCN(C)C)c1cccc2ccccc12 [BEDAQUILINE],MIC99,0.06 µg/mL
